Test results as given in the NIST ThermoML archive (doi:10.1016/j.jct.2016.10.005).

Assay: excess molar enthalpy (molar enthalpy of mixing); xn = mol fraction of the nth substance listed
Settings: 100 kPa, Liquid, Flow calorimetry

C1CCCCC1 [cyclohexane] + CCCO
excess molar enthalpy [kJ/mol]
Settings | 298.15 K | 313.15 K
x1 = 0.0503 | 0.091 | 0.107
x1 = 0.1005 | 0.173 | 0.208
x1 = 0.1499 | 0.247 | 0.3
x1 = 0.2005 | 0.316 | 0.388
x1 = 0.2498 | – | 0.467
x1 = 0.2499 | 0.378 | –
x1 = 0.3004 | – | 0.541
x1 = 0.3005 | 0.435 | –
x1 = 0.3502 | – | 0.607
x1 = 0.3503 | 0.486 | –
x1 = 0.4001 | – | 0.666
x1 = 0.4003 | 0.531 | –
x1 = 0.45 | – | 0.717
x1 = 0.4501 | 0.569 | –
x1 = 0.4997 | – | 0.758
x1 = 0.4998 | 0.599 | –
x1 = 0.5502 | – | 0.79
x1 = 0.5504 | 0.623 | –
x1 = 0.6006 | 0.637 | 0.81
x1 = 0.6503 | 0.642 | 0.819
x1 = 0.6994 | – | 0.813
x1 = 0.6995 | 0.636 | –
x1 = 0.7503 | – | 0.791
x1 = 0.8005 | 0.582 | 0.75
x1 = 0.8497 | 0.53 | 0.689
x1 = 0.9005 | 0.456 | 0.598
x1 = 0.9502 | 0.346 | 0.459

CC1CCCCC1 [methylcyclohexane] + CCCO
excess molar enthalpy [kJ/mol]
Settings | 298.15 K | 313.15 K
x1 = 0.0498 | 0.075 | 0.1
x1 = 0.1005 | 0.144 | 0.195
x1 = 0.1504 | 0.207 | –
x1 = 0.1505 | – | 0.283
x1 = 0.2 | 0.265 | 0.365
x1 = 0.2504 | 0.321 | 0.443
x1 = 0.3005 | 0.372 | 0.515
x1 = 0.3501 | 0.419 | –
x1 = 0.3502 | – | 0.581
x1 = 0.3998 | 0.462 | 0.64
x1 = 0.4503 | 0.501 | 0.694
x1 = 0.5004 | 0.533 | –
x1 = 0.5005 | – | 0.74
x1 = 0.55 | 0.559 | 0.781
x1 = 0.5998 | 0.577 | –
x1 = 0.5999 | – | 0.798
x1 = 0.6497 | 0.587 | 0.81
x1 = 0.6995 | 0.587 | 0.808
x1 = 0.7505 | 0.574 | 0.79
x1 = 0.7996 | 0.549 | 0.756
x1 = 0.8495 | 0.508 | 0.702
x1 = 0.9002 | 0.446 | 0.619
x1 = 0.9499 | – | 0.486
